{"source": "patent US20230029496A1", "about": "“AMINO ACID ALTERNATIVE CURING SYSTEM” (THE TEXAS A&M UNIVERSITY SYSTEM, priority 2019, published 2023)", "key": {"NOS system": {"test_system": "NOS system", "assay": "NO-heme, total heme, nitrosylation and cured color in test tube pork loin sausages (Example 11)", "excerpt": "Pork loins from a local meat distributor were procured on Mar. 18, 2019 and tested four weeks later on Apr. 18, 2019. A total of nine pounds of pork loins were split into thirds and ground through kidney, ½″, and ¼″ plates to make a restructured ham sausages formulated (Table 14) to contain either 1000 or 5000 ppm L-arginine which were stuffed in 2″ plastic casings and thermally processed. Three pounds of each grind size (9 pound batch) were mixed with high (5000 ppm), low (1000 ppm), or control (0 ppm) concentrations of brine at 25% addition using a Kitchen aid mixer. It was decided to lower the concentration of the L-arginine from 1500 ppm (Test 3) to 1000 ppm (Test 4) to verify that this concentration can generate acceptable levels of NO to develop cured color and residual nitrite for antioxidant and antimicrobial properties. Control and treatment met batches were stuffed in plastic casings in triplicate for each high, low, and control concentrations in one pound portions. […] The samples were tested for residual nitrite and nitroso-hemochromagen pigment (Table 14) one day after thermal processing cooking (April 19th to April 20th), then eight days after thermal processing on April 26th to determine any cure color fading and residual nitrite."}, "[1]": {"test_system": "Nitric Oxide Synthase (NOS) system", "assay": "Residual nitrite in pre-rigor and post-rigor pork semimembranosus muscle immersed in L-arginine (Example 13)", "format": "biochemical", "procedure": "Pre-rigor pork semimembranosus muscle samples were collected from four pre-rigor pork carcasses (n=4) harvested at the Rosenthal Meat Science and Technology Center at Texas A&M University at three separate times over a three day period (N=12). Post-rigor pork semimembranosus muscle samples were collected from the same carcasses eighteen hours after harvesting to ensure the full onset and completion of rigor (N=12). Muscle samples were treated with the same five concentrations of L-arginine and water as the control treatment. Samples were either heated (water bath increasing from room temperature ([…]) to 62° C. for 60 min) or left raw/fresh (uncooked). The overall experiment was designed as a 6 (5 L-arginine concentrations and a control) by 4 (pork carcasses) by 2 (heating treatment (raw and cooked)) factorial replicated 3 times (collection) (N=144) for both pre-rigor and post-rigor muscle types.\nSolutions were prepared by Wu's specifications to stabilize the muscle samples for enclosed reactions within 50 mL conical tubes. […] The NaCl was used to suspend and stabilize any reaction and the NaE was used to accelerate the cure reaction. The L-arginine (L-arginine monohydrochloride, Ajinomoto Inc., Raleigh, N.C.) concentrations were prepared separately for administration as a treatment once the five grams of meat were added to the reaction tubes at dilutions of 0 mM, 2 mM, 4 mM, 8 mM 16 mM, and 32 mM.\nResidual nitrite was determine using the modified AOAC Official Method 973.31 (Nitrite Analysis in Cured Meats Procedure) and was verified by Wu with sample (plasma or serum) preparation for amino acid analysis by HPLC and determination of nitrite (UV/VIS Spectrophotometric Method). This method was used to best determine any residual nitrite found in samples to compensate for both pre-rigor and post rigor effects on detecting residual nitrite. All samples were tested one week later after being held in a −30° C. freezer then thawed in a 0° C. cooler."}, "[2]": {"conditions": "Low (1000 ppm) L-arginine, 8 days post thermal processing"}, "[3]": {"conditions": "Low (1000 ppm) L-arginine, one day after thermal processing"}, "[4]": {"conditions": "2 mM L-arginine, cooked supernatant"}, "[5]": {"conditions": "2 mM L-arginine, raw supernatant, stored one week at -30° C."}, "[6]": {"conditions": "4 mM L-arginine, cooked supernatant"}, "[7]": {"conditions": "4 mM L-arginine, raw supernatant, stored one week at -30° C."}, "[8]": {"conditions": "8 mM L-arginine, cooked supernatant"}, "[9]": {"conditions": "8 mM L-arginine, raw supernatant, stored one week at -30° C."}, "[10]": {"conditions": "16 mM L-arginine, cooked pellet"}, "[11]": {"conditions": "16 mM L-arginine, cooked supernatant"}, "[12]": {"conditions": "16 mM L-arginine, raw supernatant, stored one week at -30° C."}, "[13]": {"conditions": "32 mM L-arginine, cooked pellet"}, "[14]": {"conditions": "32 mM L-arginine, cooked supernatant"}, "[15]": {"conditions": "32 mM L-arginine, raw supernatant, stored one week at -30° C."}}, "note": "Values joined by “and” are separate entries in the source; they are usually repeats but may differ in a detail not shown here. Equal values may be shown once. Read-outs that look alike come from different tables or passages of the source. Marks after values point to notes of the source that are not given here."}
{"smiles": "N=C(N)NCCC[C@H](N)C(=O)O", "note": "[L-arginine]", "values": [{"measurement": "Total Heme", "setting": "NOS system; High (5000 ppm) L-arginine, one day after thermal processing", "value": "22.21^a ppm"}, {"measurement": "NO-Heme", "setting": "NOS system; [2]", "value": "12.95^a ppm"}, {"measurement": "Nitrosylation", "setting": "NOS system; [2]", "value": "45.28^a %"}, {"measurement": "NO-Heme", "setting": "NOS system; [3]", "value": "8.21^a ppm"}, {"measurement": "Total Heme", "setting": "NOS system; [3]", "value": "22.21^a ppm"}, {"measurement": "nitrosylation percentage", "setting": "NOS system; from the low to high concentrations, one day after thermal processing", "value": "37 to 60", "unit": "%"}, {"measurement": "cured color (FIG. 8)", "setting": "NOS system; high concentration (5000 ppm) L-arginine", "value": "pink cured color formation"}, {"measurement": "cured color (FIG. 8)", "setting": "NOS system; low concentration (1000 ppm) L-arginine", "value": "slight cured color"}, {"measurement": "Injected Loin pH", "setting": "eNOS system; 10% injection of test brine (Table 8)", "value": "7.15 and 7.12"}, {"measurement": "Injected Loin pH", "setting": "eNOS system; 15% injection of test brine (Table 8)", "value": "7.09 and 7.08"}, {"measurement": "Injected Loin pH", "setting": "eNOS system; 20% injection of test brine (Table 8)", "value": "7.03 and 7.14"}, {"measurement": "Injected Loin pH", "setting": "eNOS system; 25% injection of test brine (Table 8)", "value": "7.18 and 7.09"}, {"measurement": "increase of muscle pH", "setting": "eNOS system; after injection of test brine with sodium tri-polyphosphate", "value": "~2.0", "unit": "pH units"}, {"measurement": "cured color formation after cooking", "setting": "eNOS system; pork loin sections injected 10, 15, 20 or 25%, held two hours, cooked to 145° F.", "value": "no observable cured color formation"}, {"measurement": "Brine pH", "setting": "eNOS system; test brine of Table 8: L-arginine 5545.41 ppm, with sodium tri-polyphosphate, salt, sugar, sodium erythorbate", "value": 10.55}, {"measurement": "Residual Post rigor Nitrite", "setting": "[1]; 2 mM L-arginine, cooked pellet", "value": "19.36^b ppm"}, {"measurement": "Residual Pre-rigor Nitrite", "setting": "[1]; 2 mM L-arginine, cooked pellet", "value": "22.87^a ppm"}, {"measurement": "Residual Post rigor Nitrite", "setting": "[1]; [4]", "value": "61.12 ppm and 61.12^a ppm"}, {"measurement": "Residual Pre-rigor Nitrite", "setting": "[1]; [4]", "value": "50.72 ppm and 50.72^a ppm"}, {"measurement": "Residual Post rigor Nitrite", "setting": "[1]; [5]", "value": "9.42^a ppm"}, {"measurement": "Residual Pre-rigor Nitrite", "setting": "[1]; [5]", "value": "15.26^a ppm"}, {"measurement": "Residual Post rigor Nitrite", "setting": "[1]; 4 mM L-arginine, cooked pellet", "value": "23.72 ppm and 23.72^ab ppm"}, {"measurement": "Residual Pre-rigor Nitrite", "setting": "[1]; 4 mM L-arginine, cooked pellet", "value": "22.64^a ppm"}, {"measurement": "Residual Post rigor Nitrite", "setting": "[1]; [6]", "value": "61.93 ppm and 61.93^a ppm"}, {"measurement": "Residual Pre-rigor Nitrite", "setting": "[1]; [6]", "value": "47.72 ppm and 47.72^ab ppm"}, {"measurement": "Residual Post rigor Nitrite", "setting": "[1]; [7]", "value": "14.50^a ppm"}, {"measurement": "Residual Pre-rigor Nitrite", "setting": "[1]; [7]", "value": "34.93^a ppm"}, {"measurement": "Residual Post rigor Nitrite", "setting": "[1]; 8 mM L-arginine, cooked pellet", "value": "22.06 ppm and 22.06^ab ppm"}, {"measurement": "Residual Pre-rigor Nitrite", "setting": "[1]; 8 mM L-arginine, cooked pellet", "value": "19.70^a ppm"}, {"measurement": "Residual Post rigor Nitrite", "setting": "[1]; [8]", "value": "52.69 ppm and 52.69^ab ppm"}, {"measurement": "Residual Pre-rigor Nitrite", "setting": "[1]; [8]", "value": "38.63 ppm and 38.63^ab ppm"}, {"measurement": "Residual Post rigor Nitrite", "setting": "[1]; [9]", "value": "21.83^a ppm"}, {"measurement": "Residual Pre-rigor Nitrite", "setting": "[1]; [9]", "value": "44.58^a ppm"}, {"measurement": "Residual Post rigor Nitrite", "setting": "[1]; [10]", "value": "22.15 ppm and 22.15^ab ppm"}, {"measurement": "Residual Pre-rigor Nitrite", "setting": "[1]; [10]", "value": "31.94^a ppm"}, {"measurement": "Residual Post rigor Nitrite", "setting": "[1]; [11]", "value": "53.74 ppm and 53.74^a ppm"}, {"measurement": "Residual Pre-rigor Nitrite", "setting": "[1]; [11]", "value": "24.62 ppm and 24.62^ab ppm"}, {"measurement": "Residual Post rigor Nitrite", "setting": "[1]; [12]", "value": "23.54^a ppm"}, {"measurement": "Residual Pre-rigor Nitrite", "setting": "[1]; [12]", "value": "11.92^a ppm"}, {"measurement": "Residual Post rigor Nitrite", "setting": "[1]; [13]", "value": "32.87 ppm and 32.87^a ppm"}, {"measurement": "Residual Pre-rigor Nitrite", "setting": "[1]; [13]", "value": "40.14 ppm and 40.14^a ppm"}, {"measurement": "Residual Post rigor Nitrite", "setting": "[1]; [14]", "value": "52.90 ppm and 52.90^ab ppm"}, {"measurement": "Residual Pre-rigor Nitrite", "setting": "[1]; [14]", "value": "20.08 ppm and 20.08^ab ppm"}, {"measurement": "Residual Post rigor Nitrite", "setting": "[1]; [15]", "value": "16.51^a ppm"}, {"measurement": "Residual Pre-rigor Nitrite", "setting": "[1]; [15]", "value": "22.09^a ppm"}, {"measurement": "Residual Nitrite", "setting": "[1]; pre-rigor raw supernatant, range over all concentrations of L-arginine", "value": "11.92-44.58 ppm"}, {"measurement": "residual nitrite levels", "setting": "[1]; raw post rigor supernatant, range over all concentrations of L-arginine", "value": "9.06-23.54 ppm"}]}
